Measurements as given in ChEMBL document CHEMBL1201862, “PubChem BioAssay data set” (2004).
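Results reflect a 48-hour exposure of cells in 96-well plates to compound at five concentrations. GI50 = concentration required for 50% inhibition of growth.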 The source made the active and inactive calls. Rule as the data show it: active = GI50 up to about 1.1 µM and inactive = higher.

Legend:
Assay in all cases: DTP human tumour cell line panel, 48 h
MCF7 = test system: MCF7
UACC-62 = test system: UACC-62
SK-OV-3 = test system: SK-OV-3
SNB-75 = test system: SNB-75
M14 = test system: M14
BT-549 = test system: BT-549
TK-10 = test system: TK-10
MOLT-4 = test system: MOLT-4
OVCAR-3 = test system: OVCAR-3
NCI-H226 = test system: NCI-H226
KM12 = test system: KM12
NCI/ADR-RES = test system: NCI/ADR-RES
HCT-15 = test system: HCT-15
SF-295 = test system: SF-295
CCRF-CEM = test system: CCRF-CEM
HCC 2998 = test system: HCC 2998
SK-MEL-5 = test system: SK-MEL-5
RPMI-8226 = test system: RPMI-8226
LOX IMVI = test system: LOX IMVI
T47D = test system: T47D

Row | SMILES | GI50 (MCF7) | GI50 (UACC-62) | GI50 (SK-OV-3) | GI50 (SNB-75) | GI50 (M14) | GI50 (BT-549) | GI50 (TK-10) | GI50 (MOLT-4) | GI50 (OVCAR-3) | GI50 (NCI-H226) | GI50 (KM12) | GI50 (NCI/ADR-RES) | GI50 (HCT-15) [µM] | GI50 (SF-295) | GI50 (CCRF-CEM) | GI50 (HCC 2998) | GI50 (SK-MEL-5) | GI50 (RPMI-8226) | GI50 (LOX IMVI) | GI50 (T47D)
1 | CC1=C2C(=O)OCC23C=COC3(C)O1 (centres undefined) | 36.2 µM (inactive) | 19.4 µM (inactive) | 46 µM (inactive) | 24.8 µM (inactive) | 24.7 µM (inactive) | 44.4 µM (inactive) | 42 µM (inactive) | 21.4 µM (inactive) | 33.4 µM (inactive) | 28.4 µM (inactive) | 26.9 µM (inactive) | 34.9 µM (inactive) | 26.2 | 41.4 µM (inactive) | 33.5 µM (inactive) | 69.3 µM (inactive) | 18 µM (inactive) | 32.5 µM (inactive) | 30.3 µM (inactive) | 29.3 µM (inactive)
2 | Cc1cc2[nH]c3c(C#N)c(-c4ccccc4)c(/N=N/c4cccc(C(F)(F)F)c4)c(=O)n3c2cc1C | 50.4 µM (inactive) | – | 32.4 µM (inactive) | > 100 µM (inactive) | 34.4 µM (inactive) | 44.2 µM (inactive) | 50.4 µM (inactive) | – | 8.55 µM (inactive) | 25.2 µM (inactive) | 31.6 µM (inactive) | 34.3 µM (inactive) | 37 | 42.6 µM (inactive) | 5.3 µM (inactive) | 59.2 µM (inactive) | 15.7 µM (inactive) | 5.35 µM (inactive) | 49.1 µM (inactive) | 20.3 µM (inactive)
3 | COc1ccc(/C=N\NC(=O)Nc2cccc3ccccc23)cc1 | 4.44 µM (inactive) | – | – | 9.98 µM (inactive) | 35.4 µM (inactive) | 29.9 µM (inactive) | 20.7 µM (inactive) | – | – | 28.2 µM (inactive) | 11.7 µM (inactive) | 22 µM (inactive) | 6.79 | – | > 100 µM (inactive) | 47.5 µM (inactive) | 28.2 µM (inactive) | > 100 µM (inactive) | 13.1 µM (inactive) | 14.1 µM (inactive)
4 | CCc1nc(N)c2nc(-c3cccs3)oc2n1 | > 100 µM (inactive) | > 100 µM (inactive) | – | 71.4 µM (inactive) | > 100 µM (inactive) | > 100 µM (inactive) | > 100 µM (inactive) | > 100 µM (inactive) | > 100 µM (inactive) | > 100 µM (inactive) | > 100 µM (inactive) | > 100 µM (inactive) | 86.9 | > 100 µM (inactive) | 77.1 µM (inactive) | > 100 µM (inactive) | > 100 µM (inactive) | 84.1 µM (inactive) | 87.7 µM (inactive) | 79.8 µM (inactive)
5 | CC(=O)c1cccc(Nc2nc3ccccc3c3occc23)c1 | 25.1 µM (inactive) | – | 17.8 µM (inactive) | 22.7 µM (inactive) | 35.2 µM (inactive) | 15.2 µM (inactive) | 15 µM (inactive) | > 100 µM (inactive) | 34.2 µM (inactive) | 2.03 µM (inactive) | 49.7 µM (inactive) | 23 µM (inactive) | 36.4 | 16.2 µM (inactive) | > 100 µM (inactive) | 46.1 µM (inactive) | 12.7 µM (inactive) | > 100 µM (inactive) | 46.2 µM (inactive) | 21 µM (inactive)
6 | CC(=O)N[C@H]1CCCC[C@@H]1OC(C)=O | > 100 µM (inactive) | > 100 µM (inactive) | > 100 µM (inactive) | > 100 µM (inactive) | – | > 100 µM (inactive) | > 100 µM (inactive) | > 100 µM (inactive) | > 100 µM (inactive) | > 100 µM (inactive) | > 100 µM (inactive) | > 100 µM (inactive) | > 100 | > 100 µM (inactive) | – | > 100 µM (inactive) | > 100 µM (inactive) | > 100 µM (inactive) | > 100 µM (inactive) | > 100 µM (inactive)
